Results: patent US20260355330A1, “CELL PENETRATING PEPTIDES AND USES THEREOF” (VECTIOPEP OÜ, priority 2022, published 2026)
“Also recorded” adds a separate entry of the source.

What was measured:
CHO-K1 cells [1] = assay: Delivery of reporter mRNA with CPPs in cell culture (luciferase luminescence 24 h post-transfection); assay type: cell-based
Procedure, shortened: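 CHO-K1 cells (10,000/well) transfected in 10% FBS DMEM with 0.1 μg firefly luciferase mRNA complexed with CPP at 3:1 charge ratio (peptide excess). Luminescence read in lysates 24 h later, normalised to BCA total protein (RLU/mg).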

CHO-K1 cells [2] = assay: Comparison of reporter levels in cells post-transfection of pDNA or mRNA delivered by CPPs; assay type: cell-based; conditions: in words, FIG. 2
Protocol: FIG. 2: Comparison of reporter levels in cells post-transfection of pDNA or mRNA delivered by CPPs (P14, NF55 and NF71; relative light units normalised to total protein in the cell lysate (RLU/mg)). Naked mRNA and untreated cells (UT) were used as controls.
Adherent CHO-K1 cells were grown in Dulbecco's Modified Eagle's Medium (DMEM), which were supplemented with 0.1 mM non-essential amino acids, 1.0 mM sodium pyruvate, 100 U/ml penicillin, and […]. For complete media, 10% (final) fetal bovine serum (FBS) was added. Cells were maintained in a humidified incubator at 37 °C, 5% CO2. Cell viability and confluence was assessed daily and the cell density was reduced regularly. For cell counting, we used the CytoSMART cell counter accompanied by 0.4% trypan blue staining prior measurement. The multi-well plates with cell cultures used for experiments were incubated in a humidified incubator at 37 °C, 5% CO2.
For in vitro experiments 0.1 μg of nucleic acid (plasmid DNA (pDNA) or mRNA) was used per 96-well plate well. For CPP/NA complex formation, the diluted NA was mixed with CPP in water. Complexes were formed based on the theoretical charge ratio (CR) of positive charges from the peptide in excess to the negative charges from nucleic acid backbone, at charge ratio 3:1 with peptide in excess. […]
For reporter luminescence (expressed from firefly luciferase encoding mRNA or plasmid pDNA) assessment in adherent cell culture, 10,000 cells per 96-well plate well were seeded in 100 μl of media one day prior to transfection. […]
24 hours post-transfection, the media was aspirated, cells were washed with 1×PBS, and 30 μl of lysis buffer (0.1% Triton X100 in 1×PBS) was added. […] From the lysate, 20 μl was transferred to a black frame white well 96-well plate for luminescence measurement after addition of substrate luciferin (PerkinElmer) in buffer. The luminescence signal was detected with GloMax® 96 microplate luminometer equipped with GloMax® 1.9.2 software (Promega). […]

[3] = in words; previously reported; cited from earlier work
[4] = in words; previously reported; cited from earlier work; remark: listed apart in the source
[5] = test system: liver, spleen, lung, kidney, heart and thymus of Balb/c mice; assay: Biodistribution of reporter levels post-transfection of mRNA or pDNA with CPPs in vivo (tissue homogenate)
Protocol: FIG. 3: Biodistribution of reporter levels post-transfection of mRNA or pDNA with NFs or PFs CPPs in vivo. Reporter gene product levels were evaluated from the whole tissue homogenates collected post mortem. Results are shown as the fold change to mRNA or pDNA treated mice.
The transfection complexes (CPP/mRNA) were formed using 10 μg of mRNA mixed with each peptide at indicated charge ratios (CRs) in MQ water in a final volume of 100 μl. CRs were calculated theoretically and account for both the positive charges of the peptide and negative charges of the nucleic acid. The transfection complexes (CPP/mRNA and CPP/pDNA) were formed using 50 μg of mRNA mixed with each peptide at indicated charge ratios (CRs) in MQ water in a final volume of 168 μl. The complexes were incubated for 30 minutes at room temperature and then mixed with equal volume of 10% glucose (resulting in a final solution of 5% glucose in a total volume of 200 μl for 10 μg dose groups and 336 μl for 50 μg dose groups) and immediately injected intravenously via the tail vein.
The reporter gene (luciferase) expression levels were evaluated from the tissue homogenate post mortem 16-24 h after single injection.
In order to determine to which organs in vivo mRNAs may be delivered to with NickFect or PepFect CPPs, mRNA complexes with NF55, NF71 and PF14 were formed and injected through the tail vein of Balb/c mice (FIG. 3A). The organs were harvested 24 hours after the single injection and reporter signal was measured from whole tissue homogenates. The biodistribution of reporter levels was measured in liver, spleen, lung, kidney, heart and thymus.
In order to compare the biodistribution profiles between harvested organs when using either mRNA or pDNA as cargo, NF424 was used to transfect these 2 types of nucleic acids in vivo (FIG. 3B and Table 4).

[6] = mRNA delivery, i.v. tail vein, 24 h after single injection, FIG. 3: fold change to mRNA or pDNA treated mice

NF71: SEQ ID NO: 14; HHYHHGO*ILLKALKALAKAIL; control/comparator construct
Average RLU/mg (reporter levels post-transfection of mRNA) (CHO-K1 cells [1]; firefly luciferase mRNA, 0.1 μg per well, charge ratio 3:1, serum containing media, 24 h, RLU normalised to total protein in lysate): 3 505 987 RLU/mg
Efficiency of mRNA transfection/delivery (CHO-K1 cells [1]; in words, FIG. 1 / Table 2, cell culture): not efficient for mRNA delivery
Efficiency of mRNA transfection (parallel pDNA/mRNA comparison) (CHO-K1 cells [2]; mRNA cargo): not effective tools for mRNA transfection/delivery; also recorded: not an efficient delivery vector for mRNA
Efficiency of pDNA transfection (parallel pDNA/mRNA comparison) (CHO-K1 cells [2]; pDNA cargo): very efficient transfection reagents for pDNA delivery
siRNA delivery efficiency [3]: very efficient for siRNA and miRNA delivery; also recorded: very efficient for siRNA and miRNA transfections; also recorded: the most efficient, even more efficient than NF55
miRNA delivery efficiency [4]: very efficient for siRNA and miRNA delivery; also recorded: very efficient for siRNA and miRNA transfections; also recorded: the most efficient in vivo
Organ distribution of mRNA delivery ([5]; in words, mRNA cargo): delivered mRNA mostly into the spleen, with very low transfection levels seen in other organs
Reporter level, Liver [5, 6]: 8
Reporter level, Lung [5, 6]: 6
Reporter level, Spleen [5, 6]: 124
